Experimental data published in patent US6258785A, “Crystalline 9-E-(O-methyl)oxime of 11, 12-dideoxy-3-de(2,6-dideoxy-3-C-methyl-3-O-methyl-α-L-ribohexopyrano syloxy)-6-O-methyl-12,11-(iminocarbonyl-(2-(3-(4-(3-pyridinyl)1H-imadazol-1 -yl)propyl)hydrazono))-3-oxoerythromycin” (Pfizer Inc., priority 1999, dated 2001).
Structures can show the parent of a compound that is named as a salt.

Assays:
[1] = Hygroscopicity of crystalline form; type: physicochemical; settings: crystalline hemihydrate form of the free base
[2] = type: physicochemical; settings: phosphate buffer, pH 6.5
Experimental: Amorphous 9-E-(O-methyl)oxime of 11,12-dideoxy-3-de(2,6-dideoxy-3-C-methyl-3-O-methyl-α-L-ribohexopyranosyloxy)-6-O-methyl-12,11-(iminocarbonyl-(2-(3-(4-(3-pyridinyl)-1H-imidazol-1-yl)propyl)hydrazono))-3-oxoerythromycin (130 g) was suspended in 3L of isopropyl ether containing 3% ethanol. The suspension was heated to 60° C. overnight and stirring was continued at room temperature (about 20-25° C.) for an additional 3 days. The resulting solid was collected by filtration to give 81 g of the title compound; mp 177° C. […] The crystals were characterized by the powder X-ray diffraction pattern noted below.
To a solution of amorphous 9-E-(O-methyl)oxime of 11,12-dideoxy-3-de(2,6-dideoxy-3-C-methyl-3-O-methyl-α-L-ribohexopyranosyloxy)-6-O-methyl-12,11-(iminocarbonyl-(2-(3-(4-(3-pyridinyl)-1H-imidazol-1-yl)propyl)hydrazono))-3-oxoerythromycin (200 mg) in 3 mL of CH2 Cl2 was added 1.19 mL of 2M solution of methanesulfonic acid in CH2 Cl2. The solution was stirred at room temperature (about 20-25° C.) for 15 minutes, and the solvent was evaporated. The residue was dissolved in 2 mL of ethyl acetate, and to this solution was added 1 mL of isopropyl ether. The solution was concentrated to approximately 0.5 mL and was left standing at room temperature (about 20-25° C.). The resulting crystals were collected by filtration to 175 mg of the title compound; mp: 193-194° C. […]

Structure (SMILES) | hygroscopicity [1] | water solubility of the resulting crystals [2]
CC[C@H]1OC(=O)[C@H](C)C(=O)[C@H](C)[C@@H](O[C@@H]2O[C@H](C)C[C@H](N(C)C)[C@H]2O)[C@](C)(OC)C[C@@H](C)/C(=N\OC)[C@H](C)[C@H]2N(NCCCn3cnc(-c4cccnc4)c3)C(=O)N[C@]12C [Example 1, 9-E-(O-Methyl)oxime of 11,12-Dideoxy-3-de(2. 6-dideoxy-3-C-methyl-3-O-methyl-α-L-ribohexopyranosyloxy)-6-O-methyl-12,11-(iminocarbonyl-(2-(3-(4-(3-pyridinyl)-1H-imidazol-1-yl)propyl)hydrazono))-3-oxoerythromycin hemihydrate] | non-hygroscopic | greater than 11 mg/ml
CC[C@H]1OC(=O)[C@H](C)C(=O)[C@H](C)[C@@H](O[C@@H]2O[C@H](C)C[C@H](N(C)C)[C@H]2O)[C@](C)(OC)C[C@@H](C)/C(=N\OC)[C@H](C)[C@H]2N(NCCCn3cnc(-c4cccnc4)c3)C(=O)N[C@]12C [Example 2, Methanesulfonic Acid Salt of 9-E-(O-Methyl)oxime of 11,12-dideoxy-3-de(2,6-dideoxy-3-C-methyl-3-O-methyl-α-L-ribohexopyranosyloxy)-6-O-methyl-12,11-(iminocarboxyl-(2-(3-(4-(3-pyridinyl)-1H-imidazol-1-yl)-propyl)hydrazo))-3-oxoerythromycin] | – | 24 mg/mL
